Test results: patent US20080293936A1, “Novel inhibitors of lysyl oxidase” (priority 2007, published 2008)

Columns and labels:
Lysyl oxidase [1] = target: T1, Lysyl oxidase (Bos taurus, UniProt P33072); assay: Kinetic investigation: dialysis of lysyl oxidase-inhibitor complexes against inhibitor-free buffer, recovery of activity; assay type: biochemical, bovine; conditions: for vt/vmax: preincubation at 10-fold IC50; for k−1: calculated from slopes; for kon: pH 8.2, from k−1 and IC50, read-out: k1 (association velocity constant) (converted)
T1 construct: The enzyme preparation was carried out at 4° C. with fresh material from bovine aorta; from tissue; host or cells: bovine aorta
T1 sequence (P33072 170-418): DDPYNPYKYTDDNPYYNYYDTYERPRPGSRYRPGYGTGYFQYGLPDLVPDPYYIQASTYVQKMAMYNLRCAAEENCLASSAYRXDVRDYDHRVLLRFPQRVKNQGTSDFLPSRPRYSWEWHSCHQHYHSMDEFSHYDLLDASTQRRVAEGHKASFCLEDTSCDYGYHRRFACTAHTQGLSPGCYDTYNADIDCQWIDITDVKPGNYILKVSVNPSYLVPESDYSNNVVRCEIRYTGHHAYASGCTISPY
Protocol: Lysyl oxidasee and lysyl oxidase inhibitors of the structural formulas (XX)-(XXIII) (Table 1) were coincubated at concentrations that were 10-fold over the respective IC50 of the inhibitor and were subsequently dialyzed against 0.5 M borax buffer at pH 8.2 without added inhibitor. The dialysis buffer was exchanged twice during the first hour and subsequently three times in hourly intervals. The volume against which was dialyzed was at least 100-fold greater than the volume of the lysyl oxidase preparation in the dialysis tube. After 2, 4, 5 und 19 h lysyl oxidase activity was measured as described in Example 2. In a parallel assay a dialysis with a non-inhibited lysyl oxidase preparation was carried out to determine the effect of spontaneous activity loss during dialysis and to obtain a reference value (100% activity, positive control). From the obtained change in time-dependent activity it was possible to calculate the dissociation velocity constants of the inhibitor compounds, the half life times of the enzyme-inhibitor complexes and the association velocity constants. In the following section it is derived how these kinetic parameters can be determined form the measurement of the reaction velocity with the inhibited fraction at the timepoint t (vt) and the reaction velocity with the positive control (vmax).
Derivations: During dialysis against buffer without inhibitor the complex (EI) consisting of enzyme (E) and inhibitor (I) decays with a dissociation constant of first k−1
The velocity of decay is proportional to the concentration of the enzyme-inhibitor complex:
Rearranging this equation and definite Integration from the initial enzyme-inhibitor-complex concentration ([EI]0) to the concentration of the complex at the measurement time point t ([EI]t) on the left side and from t=0 to t on the right side yields:
The ratio of the reaction velocity when the inhibited enzyme preparation is used at a measurement time point t (vt) to the reaction velocity when the positive control is used (vmax) is dependent on the proportion of the total enzyme concentration in the assay ([E]0) that is present as enzyme-inhibitor-complex concentration at a time point t ([EI]t). The following equation describes this relationship: […]
For reasons of simplification a variable Rt can be defined
Solving the above differential equation and substituting Rt into the equation one obtains: […]
By linear regression with ln Rt and t, k−1 can be determined as the coefficient of slope.
Using k−1 one can calculate the half-life time of the enzyme-inhibitor-complexes (t1/2) as:
To determine the kinetic association constant the equilibrium is considered:
At the particular inhibitor concentration (IC50) at which the reaction velocity is 50% of the reaction velocity of the positive control, the free enzyme concentration ([E]) is approximately equal to the concentration of the enzyme inhibitor complex ([EI])
By substitution into the equilibrium equation and by simple rearrangement one obtains a term for the association constant which is dependent on the dissociation constant determined above and on the IC50:
Results Tables 2a to 2d show the results from reaction velocity measurements at the time points after 0, 120, 270 and 1140 min of dialysis against an inhibitor-free buffer. The relative reaction velocities and the derived constants are provided. In addition, the results of a regression analysis according to Example 3 are provided, from which the kinetic constants from table 3 can be calculated. Results are shown for compounds (XX)-[…].

Lysyl oxidase [2] = target: T1, Lysyl oxidase; assay: Lysyl oxidase inhibition, peroxidase-coupled fluorometric activity test; assay type: biochemical, bovine
Protocol: Lysyl oxidase was isolated form bovine aorta, modified according to Williams und Kagan (1985) Assessment of lysyl oxidase variants by urea gel electrophoresis: evidence against disulfide isomers as bases of the enzyme heterogeneity. Anal. Biochem. 149: 430-7, and Kagan und Sullivan (1982) Lysyl oxidase: preparation and role in elastin biosynthesis. Methods Enzymol. 82(Pt A): 637-50. The enzyme preparation was carried out at 4° C. with fresh material from bovine aorta. The aorta was homogenized for 90 seconds in 2.5. ml buffer per gram of tissue. The buffer consisted of 16 mM potassium phosphate, 150 mM sodium chloride and 1 mM phenylmethylsulfonylfluoride. The homogenized mixture was centrifuged for 20 minutes at 11,000 g. The homogenization was followed by a centrifugation step and was repeated with 150 mM sodium chloride buffer and 1 M urea buffer. The pellet that was obtained after centrifugation was homogenized in buffer plus 4 M urea, was stirred over night and centrifuged twice. The supernatants with the lysyl oxidase activity were stored each time.
To determine the specific enzyme activity of lysyl oxidase a coupled activity test with fluorescence was applied (modified according to nach Trackman P C, Zoski C G, Kagan, H M (1981) Development of a peroxidase-coupled fluorometric assay for lysyl oxidase. Anal. Biochem. 113: 336-342).
Into a 2 ml plastic cuvette the following reaction solution was pipetted:
The fluorescence of the reaction solution was determined at an excitation wavelength of 350 nm and measurement of emission was carried out at 425 nm at 37° C. Before the addition of the sample solution fluorescence was determined by calibration with 1 nmol hydrogen peroxide. This increase in fluorescence was equivalent to a turnover of 1 nmol 1,5-diaminopentane. As a positive control the time course of the increase in fluorescence when an equivalent volume of lysyl oxidase without inhibitor was added, was used. The development of fluorescence of the assay without the addition of lysyl oxidase used as a negative control. […]

[3] = regression analysis below Tables 2a-2d

| Rt (Lysyl oxidase [1]; 0 min of dialysis) | ln Rt (Lysyl oxidase [1]; 0 min of dialysis) | vt/vmax (Lysyl oxidase [1]; 0 min of dialysis) | Rt (Lysyl oxidase [1]; 120 min of dialysis) | ln Rt (Lysyl oxidase [1]; 120 min of dialysis) | vt/vmax (Lysyl oxidase [1]; 120 min of dialysis) | Rt (Lysyl oxidase [1]; 270 min of dialysis) | ln Rt (Lysyl oxidase [1]; 270 min of dialysis) | vt/vmax (Lysyl oxidase [1]; 270 min of dialysis) | Rt (Lysyl oxidase [1]; 1,140 min of dialysis) | vt/vmax (Lysyl oxidase [1]; 1,140 min of dialysis) | k−1 (Lysyl oxidase [1]; Table 3) [h⁻¹] | kon (Lysyl oxidase [1]; Table 3) [M⁻¹ s⁻¹] | ln Rt (Lysyl oxidase [1]; 1,140 min of dialysis) | k−1 (dissociation velocity constant) (Lysyl oxidase [1]; [3]) [h⁻¹] | IC50 (Lysyl oxidase [2]; Table 1, lysyl oxidase from bovine aorta, 37° C., pH 8.2) [µM] | IC50 (Lysyl oxidase [2]; Table 3) [µM] | IC50 (Lysyl oxidase [2]; as quoted in titles of Tables 2a-2d) [µM] | residence time (Lysyl oxidase [1]; Table 3, from k−1, read-out: t1/2 (half-life time of the enzyme-inhibitor complex) (converted)) [min] | slope (linear regression of ln Rt against t) (Lysyl oxidase [1]; [3]) | SMILES |
| --- | --- | --- | --- | --- | --- | --- | --- | --- | --- | --- | --- | --- | --- | --- | --- | --- | --- | --- | --- | --- |
| 1 | 0 | 0 | 0.91 | −9.431 × 10^−2 | 9 × 10^−2 | 0.72 | −0.3285 | 0.28 | 0 | 1 | 0.053 | 13.6 |  |  |  |  |  |  |  | COCCc1ccc(Oc2c(-n3ccnc3)cnn(-c3ccc(Cl)cc3)c2=O)cc1 [(XX), 2-(4-chlorophenyl)-5-(1H-imidazole-1-yl)-4-[4-(2-methoxyethyl)phenoxy]pyridazine-3(2H)-one] |
| 1 | 0 | 0 | 0.75 | −0.2877 | 0.25 | 0.64 | −0.4463 | 0.36 | 0.33 | 0.67 | 0.074 | 75 | −1.109 | 0.05344 |  |  |  |  |  | O=c1c(Oc2ccc(-c3ccccc3)cc2)c(-n2ccnc2)cnn1-c1ccc(Cl)cc1Cl [(XXII), 4-(1,1′-biphenyl-4-yloxy)-2-(2,4-dichlorophenyl)-5-(1H-imidazole-1-yl)pyridazine-3(2H)-one] |
| 0.84 | −0.1744 | 0.16 | 0.47 | −0.7550 | 0.53 | 0.37 | −0.9943 | 0.63 | 0.11 | 0.89 | 0.097 | 18.3 | −2.207 | 0.09694 | 1.47 | 1.47 | ~1.47 | 438 | −1.616×10^−3 1/min | CCCc1ccc(Oc2c(-n3ccnc3)cnn(-c3ccc(Cl)cc3)c2=O)cc1 [(XXIII), 2-(4-chlorophenyl)-5-(1H-imidazole-1-yl)-4-(4-propylphenoxy)pyridazine-3(2H)-one] |
